The results in this text go back to PMC7026418, “The kinase polypharmacology landscape of clinical PARP inhibitors” (Scientific Reports, 2020).

Holding throughout (experiment): biochemical
What all share (parameters): DiscoveRx KINOMEscan active site-directed competition binding; percent of control kinase bound to immobilised ligand

One assay has as its target T1, LZK (Homo sapiens, UniProt O43283).
T1 construct: gene MAP3K13
T1 sequence (O43283 1-966): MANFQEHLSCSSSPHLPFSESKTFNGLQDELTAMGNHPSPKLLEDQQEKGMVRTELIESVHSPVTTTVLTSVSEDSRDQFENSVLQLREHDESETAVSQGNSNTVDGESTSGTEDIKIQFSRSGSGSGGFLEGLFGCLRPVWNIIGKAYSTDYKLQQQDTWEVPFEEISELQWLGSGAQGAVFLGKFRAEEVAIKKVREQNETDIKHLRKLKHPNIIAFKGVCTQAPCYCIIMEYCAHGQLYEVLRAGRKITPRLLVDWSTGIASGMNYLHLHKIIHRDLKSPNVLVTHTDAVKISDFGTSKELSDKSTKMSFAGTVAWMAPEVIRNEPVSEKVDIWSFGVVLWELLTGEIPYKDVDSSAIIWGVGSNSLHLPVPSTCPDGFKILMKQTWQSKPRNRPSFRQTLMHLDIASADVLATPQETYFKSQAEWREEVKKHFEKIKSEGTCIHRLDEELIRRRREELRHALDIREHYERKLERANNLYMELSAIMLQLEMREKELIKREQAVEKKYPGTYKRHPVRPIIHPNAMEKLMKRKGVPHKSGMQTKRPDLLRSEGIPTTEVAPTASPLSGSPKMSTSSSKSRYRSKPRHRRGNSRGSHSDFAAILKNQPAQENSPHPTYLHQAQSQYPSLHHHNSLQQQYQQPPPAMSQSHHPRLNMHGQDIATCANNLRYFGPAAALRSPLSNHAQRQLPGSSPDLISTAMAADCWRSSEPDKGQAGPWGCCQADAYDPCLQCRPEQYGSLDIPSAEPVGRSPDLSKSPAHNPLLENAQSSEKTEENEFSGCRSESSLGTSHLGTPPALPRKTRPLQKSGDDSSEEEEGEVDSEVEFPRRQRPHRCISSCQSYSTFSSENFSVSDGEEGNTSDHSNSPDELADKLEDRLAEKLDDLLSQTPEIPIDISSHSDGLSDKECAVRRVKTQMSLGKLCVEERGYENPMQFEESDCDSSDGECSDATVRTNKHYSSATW

The target of another assay is T2, LATS2 (Homo sapiens, UniProt Q9NRM7).
T2 sequence (Q9NRM7 1-1088): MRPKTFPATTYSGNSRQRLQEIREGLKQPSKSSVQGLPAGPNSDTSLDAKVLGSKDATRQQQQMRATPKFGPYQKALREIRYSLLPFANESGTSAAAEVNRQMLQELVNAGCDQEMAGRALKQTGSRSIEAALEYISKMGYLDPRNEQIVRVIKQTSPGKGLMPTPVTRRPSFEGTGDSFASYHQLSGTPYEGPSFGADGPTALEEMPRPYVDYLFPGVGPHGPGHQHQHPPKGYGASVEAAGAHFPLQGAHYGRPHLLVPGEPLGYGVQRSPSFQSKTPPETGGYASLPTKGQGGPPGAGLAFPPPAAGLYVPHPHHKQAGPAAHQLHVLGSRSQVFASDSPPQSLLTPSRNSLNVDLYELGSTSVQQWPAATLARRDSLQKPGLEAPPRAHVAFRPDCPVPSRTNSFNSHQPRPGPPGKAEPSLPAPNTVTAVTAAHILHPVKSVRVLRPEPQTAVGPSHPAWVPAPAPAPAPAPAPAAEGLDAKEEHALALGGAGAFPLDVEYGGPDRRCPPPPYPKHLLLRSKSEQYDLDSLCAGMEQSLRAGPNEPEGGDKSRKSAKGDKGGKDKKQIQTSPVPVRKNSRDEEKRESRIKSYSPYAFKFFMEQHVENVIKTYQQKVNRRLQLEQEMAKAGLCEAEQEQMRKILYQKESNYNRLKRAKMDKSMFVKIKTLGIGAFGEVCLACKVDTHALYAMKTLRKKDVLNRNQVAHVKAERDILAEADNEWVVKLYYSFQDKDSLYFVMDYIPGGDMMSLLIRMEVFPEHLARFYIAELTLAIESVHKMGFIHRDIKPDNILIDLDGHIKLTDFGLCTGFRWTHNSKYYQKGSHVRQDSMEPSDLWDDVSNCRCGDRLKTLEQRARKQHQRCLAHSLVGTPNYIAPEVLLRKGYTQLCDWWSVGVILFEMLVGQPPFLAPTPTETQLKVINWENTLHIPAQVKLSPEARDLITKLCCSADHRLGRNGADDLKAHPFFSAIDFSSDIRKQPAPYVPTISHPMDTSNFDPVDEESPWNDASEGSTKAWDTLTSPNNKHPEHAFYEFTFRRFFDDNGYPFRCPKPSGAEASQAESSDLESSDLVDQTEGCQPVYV

The next assay has as its target T3, MLK1 (Homo sapiens, UniProt P80192).
T3 construct: gene MAP3K9

The mark [1] stands for this setting: read-out: Niraparib (MK-4827) / %Ctrl @ 10000nM.
Where [2] appears, read: read-out: Olaparib / %Ctrl @ 10000nM.
Setting [3] is: read-out: Rucaparib / %Ctrl @ 10000nM, binding competition, % of control.
Where [4] appears, read: read-out: Talazoparib (BMN 673) / %Ctrl @ 10000nM.

Where two headings read alike, the source gives them in different places.

T3 sequence (P80192 whole entry): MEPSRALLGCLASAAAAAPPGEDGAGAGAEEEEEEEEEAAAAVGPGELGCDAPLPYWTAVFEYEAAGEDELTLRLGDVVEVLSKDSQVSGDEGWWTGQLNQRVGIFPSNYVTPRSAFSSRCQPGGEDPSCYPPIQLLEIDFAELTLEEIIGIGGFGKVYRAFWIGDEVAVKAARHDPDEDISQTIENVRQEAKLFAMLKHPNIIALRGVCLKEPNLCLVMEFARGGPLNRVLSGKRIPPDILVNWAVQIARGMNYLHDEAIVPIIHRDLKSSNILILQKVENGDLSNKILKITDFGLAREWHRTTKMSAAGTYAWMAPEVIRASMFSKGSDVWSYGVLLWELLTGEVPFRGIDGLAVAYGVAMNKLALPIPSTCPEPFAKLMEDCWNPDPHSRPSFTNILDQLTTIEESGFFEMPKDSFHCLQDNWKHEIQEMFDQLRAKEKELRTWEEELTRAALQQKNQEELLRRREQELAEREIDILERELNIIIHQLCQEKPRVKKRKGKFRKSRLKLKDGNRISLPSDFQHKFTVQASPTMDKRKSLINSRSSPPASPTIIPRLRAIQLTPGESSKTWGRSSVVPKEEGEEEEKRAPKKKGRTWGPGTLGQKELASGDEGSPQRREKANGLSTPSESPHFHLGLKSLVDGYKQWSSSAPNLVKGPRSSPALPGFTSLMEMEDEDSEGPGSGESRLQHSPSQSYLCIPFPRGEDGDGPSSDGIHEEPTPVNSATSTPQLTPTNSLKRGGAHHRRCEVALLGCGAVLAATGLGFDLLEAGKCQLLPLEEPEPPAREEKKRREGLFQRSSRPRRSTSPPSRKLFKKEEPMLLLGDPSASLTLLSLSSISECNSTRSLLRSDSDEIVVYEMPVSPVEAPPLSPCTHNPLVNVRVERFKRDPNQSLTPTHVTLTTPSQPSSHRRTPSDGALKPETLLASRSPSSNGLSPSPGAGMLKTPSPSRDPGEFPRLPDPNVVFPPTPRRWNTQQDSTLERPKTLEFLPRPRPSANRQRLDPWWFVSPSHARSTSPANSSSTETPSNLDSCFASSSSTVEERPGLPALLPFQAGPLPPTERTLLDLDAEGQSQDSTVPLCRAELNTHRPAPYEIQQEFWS

As for `NC(=O)c1cccc2cn(-c3ccc([C@@H]4CCCNC4)cc3)nc12` [Niraparib], the percent of control binding at 10 µM at LZK (setting [1]) amounted to 96%; at LATS2 (setting [1]) it was 4.2%; at MLK1 (setting [1]) it was 87%.
Take `O=C(c1cc(Cc2n[nH]c(=O)c3ccccc23)ccc1F)N1CCN(C(=O)C2CC2)CC1` [Olaparib]: the percent of control binding at 10 µM was determined as 100% on LZK (setting [2]), 77% on LATS2 (setting [2]) and 100% at MLK1 (setting [2]).
Regarding `CNCc1ccc(-c2[nH]c3cc(F)cc4c3c2CCNC4=O)cc1` [Rucaparib], the results for the percent of control binding at 10 µM on LZK (setting [3]), at LATS2 (setting [3]) and at MLK1 (setting [3]) were 100%, 48% and 100%, respectively.
As for `Cn1ncnc1[C@H]1c2n[nH]c(=O)c3cc(F)cc(c23)N[C@@H]1c1ccc(F)cc1` [Talazoparib], the percent of control binding at 10 µM on LZK (setting [4]) was 100%; on LATS2 (setting [4]), 82%; at MLK1 (setting [4]), 77%.
